How the values were obtained:
HCT116 cells = test: cells; conditions: Homo sapiens, HCT-116, 72 h, read-out: Test Example 3 HCT116 GI50
Description: McCoy's 5A medium containing 10% bovine serum was used as the culture medium for each cell. […] They were added to each well of 384-well plates at 40 nL/well using an Echo555 (Labcyte Inc.). […] On the day of compound addition (day 0) and 3 days after compound addition (day 3), 10 μL/well of CellTiter-Glo® 2.0 Assay (Promega, #G9242), which is a reagent for ATP measurement, was added to each well, and the amount of luminescence in each well was measured with EnVision. From the amount of luminescence on the day of compound addition (C0) and the amount of luminescence of the compound non-addition group (C3) and compound addition group (T3) after 3 days of culture, cell viability was calculated based on the following formula. Cell viability (%)=[(T3−C0)/(C3−C0)]×100

[1] = tested on: PTDSS2-KO HCT116 cell-subcutaneous transplanted model; test: Test Example 4: Antitumor activity on PTDSS2-KO HCT116 cell-subcutaneous transplanted model; format: in vivo, female BALB/c-nu/nu mice; conditions: oral
Text: HCT116 cell-subcutaneous transplanted model PTDSS2-KO HCT116 cells were transplanted to a right subcutaneous axillary portion of female BALB/c-nu/nu mice at a proportion of 1×10^7 cells/head, and when the tumor volume reached 100 to 300 mm^3 (estimated tumor volume (major axis×minor axis×minor axis/2)), mice were divided into groups of 6 or 5 mice each such that there was no difference between groups. The female BALB/c-nu/nu mice were purchased from CHARLES RIVER LABORATORIES JAPAN, INC. The compounds of Examples 58, 57, 53, 30, 42, 32, 34, 33, and 31 were orally administered from the day of grouping in the dosing schedule shown in Table 12 (twice daily, 11 successive days (BID×11), or once daily, 13 successive days (QD×13)). The tumor volume was measured until the next day of completion of the administration (test end date). 0.5% methylcellulose (MC) was administered to the vehicle control group as the vehicle.
TGI %=(1−TVt/TVc)×100 • TGI: Tumor growth suppression rate • TVt: Group mean tumor volume of compound administration group on test end date • TVc: Group mean tumor volume of vehicle control group on test end date

[2] = 10 mg/kg, QD × 13, test end date
[3] = 20 mg/kg, QD × 13, test end date
[4] = 40 mg/kg, QD × 13, test end date

SMILES | GI50 (HCT116 cells) [µM] | also measured
Cc1nc(C2c3c(-c4cccc5[nH]c(=O)oc45)n[nH]c3C(=O)N2CC(C)(F)F)ccc1F (single isomer, unassigned) [Example 23, 7-[5-(2,2-Difluoropropyl)-4-(5-fluoro-6-methylpyridin-2-yl)-6-oxo-1,4,5,6-tetrahydropyrrolo[3,4-c]pyrazol-3-yl]-1,3-benzoxazol-2(3H)-one (enantiomer)] | > 25 | –
CC(F)(F)CN1C(=O)c2[nH]nc(-c3cccc4[nH]c(=O)oc34)c2C1c1ccc(Oc2ccc(Cl)cc2)cc1F (single isomer, unassigned; (-)) [Example 58, (−)-7-{4-[4-(4-Chlorophenoxy)-2-fluorophenyl]-5-(2,2-difluoropropyl)-6-oxo-1,4,5,6-tetrahydropyrrolo[3,4-c]pyrazol-3-yl}-1,3-benzoxazol-2(3H)-one] | – | TGI (%) ([1]; 200 mg/kg, BID × 11, test end date): 87%
CC(F)(F)CN1C(=O)c2[nH]nc(-c3cccc4[nH]c(=O)oc34)c2C1c1ccc2c(cnn2-c2ccccc2)c1 (stereo not shown) [Example 88, 7-[5-(2,2-Difluoropropyl)-6-oxo-4-(1-phenyl-1H-indazol-5-yl)-1,4,5,6-tetrahydropyrrolo[3,4-c]pyrazol-3-yl]-1,3-benzoxazol-2(3H)-one] | 7.9 | –
O=C1c2[nH]nc(-c3cc(Oc4ccccc4)cc4[nH]c(=O)oc34)c2C(c2ccc(F)cc2)N1CC(F)(F)F (stereo not shown) [Example 15, 7-[4-(4-Fluorophenyl)-6-oxo-5-(2,2,2-trifluoroethyl)-1,4,5,6-tetrahydropyrrolo[3,4-c]pyrazol-3-yl]-5-phenoxy-1,3-benzoxazol-2(3H)-one] | > 25 | –
CC(F)(F)CN1C(=O)c2[nH]nc(-c3cccc4[nH]c(=O)oc34)c2C1c1ccc(Oc2cc(Cl)cc(OC(F)(F)F)c2)cc1 (single isomer, unassigned; (-)) [Example 34, (−)-7-[4-{4-[3-Chloro-5-(trifluoromethoxy)phenoxy]phenyl}-5-(2,2-difluoropropyl)-6-oxo-1,4,5,6-tetrahydropyrrolo[3,4-c]pyrazol-3-yl]-1,3-benzoxazol-2(3H)-one] | – | TGI (%) [1, 2]: 63%; TGI (%) [1, 3]: 87%; TGI (%) [1, 4]: 96%
CC(F)(F)CN1C(=O)c2[nH]nc(-c3cccc4[nH]c(=O)oc34)c2C1c1ccc(Oc2ccc(Cl)cc2)cc1 (single isomer, unassigned; (-)) [Example 57, (−)-7-{4-[4-(4-Chlorophenoxy)phenyl]-5-(2,2-difluoropropyl)-6-oxo-1,4,5,6-tetrahydropyrrolo[3,4-c]pyrazol-3-yl}-1,3-benzoxazol-2(3H)-one] | – | TGI (%) ([1]; 50 mg/kg, BID × 11, test end date): 89%; TGI (%) ([1]; 100 mg/kg, BID × 11, test end date): 97%
CC(F)(F)CN1C(=O)c2[nH]nc(-c3cccc4[nH]c(=O)oc34)c2C1c1cc(Oc2ccc(F)cc2)ccn1 (stereo not shown) [Example 78, 7-{5-(2,2-Difluoropropyl)-4-[4-(4-fluorophenoxy)pyridin-2-yl]-6-oxo-1,4,5,6-tetrahydropyrrolo[3,4-c]pyrazol-3-yl}-1,3-benzoxazol-2(3H)-one] | > 25 | –
O=C1c2[nH]nc(-c3cccc4[nH]c(=O)oc34)c2C(c2cccc(Oc3ccccc3)c2)N1Cc1ncco1 (stereo not shown) [Example 12, 7-{5-[(1,3-Oxazol-2-yl)methyl]-6-oxo-4-(3-phenoxyphenyl)-1,4,5,6-tetrahydropyrrolo[3,4-c]pyrazol-3-yl}-1,3-benzoxazol-2(3H)-one] | > 25 | –
O=C1c2[nH]nc(-c3cccc4[nH]c(=O)oc34)c2C(c2cccc(Oc3ccc(Cl)cn3)c2)N1CC1CC1 (stereo not shown) [Example 3] | 13 | –
CC(F)(F)CN1C(=O)c2[nH]nc(-c3cccc4[nH]c(=O)oc34)c2C1c1ccnc(Oc2ccccc2)c1 (stereo not shown) [Example 72, 7-[5-(2,2-Difluoropropyl)-6-oxo-4-(2-phenoxypyridin-4-yl)-1,4,5,6-tetrahydropyrrolo[3,4-c]pyrazol-3-yl]-1,3-benzoxazol-2(3H)-one] | > 25 | –
CC(F)(F)CN1C(=O)c2[nH]nc(-c3cccc4[nH]c(=O)oc34)c2C1c1ccc(Oc2ccc(OC(F)(F)F)c(Cl)c2)cc1 (single isomer, unassigned; (-)) [Example 31, (−)-7-[4-{4-[3-chloro-4-(trifluoromethoxy)phenoxy]phenyl}-5-(2,2-difluoropropyl)-6-oxo-1,4,5,6,-tetrahydropyrrolo[3,4-c]pyrazol-3-yl]-1,3-benzoxazol-2-(3H)-one] | – | TGI (%) [1, 4]: 88%
CC(F)(F)CN1C(=O)c2[nH]nc(-c3cccc4[nH]c(=O)oc34)c2C1c1ccc(C(F)(F)c2ccccc2)cc1 (stereo not shown) [Example 91, 7-[4-{4-[Difluoro(phenyl)methyl]phenyl}-5-(2,2-difluoropropyl)-6-oxo-1,4,5,6-tetra hydropyrrolo[3,4-c]pyrazol-3-yl]-1,3-benzoxazol-2(3H)-one] | 15 | –
CC(F)(F)CN1C(=O)c2[nH]nc(-c3cccc(NC(N)=O)c3)c2C1c1ccc(Cl)cc1 (stereo not shown) [Example 93, N-{3-[4-(4-Chlorophenyl)-5-(2,2-difluoropropyl)-6-oxo-1,4,5,6-tetrahydropyrrolo[3,4-c]pyrazol-3-yl]phenyl}urea] | > 25 | –
CC(F)(F)CN1C(=O)c2[nH]nc(-c3cccc(NC=O)c3)c2C1c1ccc(Cl)cc1 (stereo not shown) [Example 92, N-{3-[4-(4-Chlorophenyl)-5-(2,2-difluoropropyl)-6-oxo-1,4,5,6-tetrahydropyrrolo[3,4-c]pyrazol-3-yl]phenyl}formamide] | 11 | –
CCC(F)(F)CN1C(=O)c2[nH]nc(-c3cccc4[nH]c(=O)oc34)c2C1c1ccc(F)cc1 (stereo not shown) [Example 11, 7-[5-(2,2-Difluorobutyl)-4-(4-fluorophenyl)-6-oxo-1,4,5,6-tetrahydropyrrolo[3,4-c]pyrazol-3-yl]-1,3-benzoxazol-2(3H)-one] | > 25 | –
CC(F)(F)CN1C(=O)c2[nH]nc(-c3cccc4[nH]c(=O)oc34)c2C1c1ccc(Oc2ccc(OC(F)(F)F)cc2)cc1 (single isomer, unassigned; (-)) [Example 30, (−)-7-[5-(2,2-difluoropropyl)-6-oxo-4-{4-[4-(trifluoromethoxy)phenoxy]phenyl}-1,4,5,6,-tetrahydropyrrolo[3,4-c]pyrazol-3-yl]-1,3-benzoxazol-2-(3H)-one] | – | TGI (%) [1, 2]: 26%; TGI (%) [1, 3]: 50%; TGI (%) [1, 4]: 83%
O=C1c2[nH]nc(-c3ccc(F)c4[nH]c(=O)oc34)c2C(c2cc(Oc3ccccc3)ccc2F)N1CC(F)(F)F (stereo not shown) [Example 16, 4-Fluoro-7-[4-(2-fluoro-5-phenoxy]phenyl)-6-oxo-5-(2,2,2-trifluoroethyl)-1,4,5,6-tetrahydropyrrolo[3,4-c]pyrazol-3-yl-1,3-benzoxazol-2(3H)-one] | > 25 | –
CC(F)(F)CN1C(=O)c2[nH]nc(-c3cccc4[nH]c(=O)oc34)c2C1c1ccc(Oc2cc(C(F)(F)F)cc(C(F)(F)F)c2)cc1F (single isomer, unassigned) [Example 66, 7-[4-{4-[3,5-Bis(trifluoromethyl)phenoxy]-2-fluorophenyl}-5-(2,2-difluoropropyl)-6-oxo-1,4,5,6-tetrahydropyrrolo[3,4-c]pyrazol-3-yl]-1,3-benzoxazol-2(3H)-one (enantiomer)] | > 25 | –
O=C1c2[nH]nc(-c3cccc4[nH]c(=O)oc34)c2C(c2ccc(Oc3ccc(Cl)cc3)cc2)N1CC1CC1 (single isomer, unassigned) [Example 2, 7-{4-[4-(4-Chlorophenoxy)phenyl]-5-(cyclopropylmethyl)-6-oxo-1,4,5,6-tetrahydropyrrolo[3,4-c]pyrazol-3-yl}-1,3-benzoxazol-2(3H)-one (enantiomer)] | 10 | –
CC(F)(F)CN1C(=O)c2[nH]nc(-c3cccc4[nH]c(=O)oc34)c2C1c1cnc(C(F)(F)F)s1 (single isomer, unassigned) [Example 24, 7-{5-(2,2-Difluoropropyl)-6-oxo-4-[2-(trifluoromethyl)-1,3-thiazol-5-yl]-1,4,5,6-tetrahydropyrrolo[3,4-c]pyrazol-3-yl}-1,3-benzoxazol-2(3H)-one (enantiomer)] | > 25 | –
O=C1c2[nH]nc(-c3cccc4[nH]c(=O)oc34)c2C(c2cccc(OC3CCC(F)(F)CC3)c2)N1CC1CC1 (stereo not shown) [Example 7, 7-[5-(Cyclopropylmethyl)-4-{3-[(4,4-difluorocyclohexyl)oxy]phenyl}-6-oxo-1,4,5,6-tetrahydropyrrolo[3,4-c]pyrazol-3-yl]-1,3-benzoxazol-2(3H)-one] | 15 | –
CC(F)(F)CN1C(=O)c2[nH]nc(-c3cccc4[nH]c(=O)oc34)c2C1c1ccc(Oc2ccc(Cl)cc2)cn1 (stereo not shown) [Example 77, 7-{4-[5-(4-Chlorophenoxy)pyridin-2-yl]-5-(2,2-difluoropropyl)-6-oxo-1,4,5,6-tetrahydropyrrolo[3,4-c]pyrazol-3-yl]-1,3-benzoxazol-2(3H)-one] | > 25 | –
CC(F)(F)CN1C(=O)c2[nH]nc(-c3cccc4[nH]c(=O)oc34)c2C1c1ccc(CN2CCC(F)(F)CC2)cc1 (single isomer, unassigned) [Example 83, 7-[4-{4-[(4,4-Difluoropiperidin-1-yl)methyl]phenyl}-5-(2,2-difluoropropyl)-6-oxo-1,4,5,6-tetrahydropyrrolo[3,4-c]pyrazol-3-yl]-1,3-benzoxazol-2(3H)-one (enantiomer)] | > 25 | –

— US12240855B2, “Pyrrolopyrazole derivative” (DAIICHI SANKYO COMPANY, LIMITED, priority 2019, dated 2025)
